Laboratory results reported in patent US20100138935A1, “Detection of cellular stress” (priority 2004, published 2010).

Experiments:
[1] = system: HO-1-LacZ (HOZ) transgene; assay: LacZ transgene expression in HO-1-LacZ (HOZ) reporter mice; assay type: in vivo, mouse
Protocol: Each test compound was dissolved in the appropriate vehicle solution and administered by intraperitoneal injection (i.p.) at a dose volume of 10 ml/kg. Wherever possible, both naive (untreated) and vehicle-treated controls were used. If a test item whose toxicity in the mouse is poorly characterised was to be used, a dose-ranging experiment was conducted prior to the main experiment. The test item was administered to a single mouse which was monitored for any adverse effects 6-8 hours and 24 hours later. If the single dose ranging mouse tolerated the treatment, the remaining mice were administered the test item according to the protocol.
Two slices of tissue (˜2 mm thickness) were removed for histochemical analysis of LacZ expression according to methods described below.
Tissues were washed with PBS and prefixed in 0.2% glutaraldehyde in PBS containing 0.1M MgCl2 and 5 mM EDTA, pH 7.3, for 4 hours at 4° C. on a shaker. After fixation, the tissues were transferred to 20% Sucrose solution and dehydrated overnight at 4° C. The next day they were embedded in cryo-M-bed medium on cork discs and lowered slowly into liquid nitrogen then transferred to −80° C. until sections were required.
Cryostat sample and chamber temperatures were set to −30° C. The sample to be sectioned was placed in the cryostat one hour prior to sectioning to allow equilibration at the appropriate temperature. Frozen sections (10 μm) were cut and placed on aminopropyltriethoxysilane (APES) coated slides.
Prior to staining, sections were incubated in 0.2% glutaraldehyde (as above) for 10 minutes at room temperature then washed twice (5 min each) in PBS containing 2 mM MgCl2, 0.01% sodium deoxycholate and 0.02% % Nonidet-P40. Sections were then […] the same wash solution containing 1 mg/ml X-gal, 5 mM potassium ferrocyanide and 5 mM potassium ferricyanide overnight at 37° C. then washed twice in PBS for 5 min, allowed to air dry and mounted in aqueous mounting medium (Hydromount). Slides were evaluated and photographed. • Frozen Method 2
Tissues were excised, immediately placed into chilled 4% paraformaldehyde containing 0.1% glutaraldehyde and 2 mM MgCl2 in PBS, and fixed in the above solution for 3 hours at 2-8° C. with gentle shaking. Fixed tissues were washed at 2-8° C. for 3×5 minutes with chilled PBS containing 2 mM MgCl2 and dehydrated overnight at 2-8° C. in PBS containing 2 mM MgCl2 and 30% (w/v) sucrose overnight The next day dehydrated tissues were embedded in OCT embedding medium using an isopentane/dry ice bath. Embedded tissues were stored at −70° C. until they could be cryosectioned.
Frozen sections were washed three times for 5 minutes in PBS containing 2 mM MgCl2 at 2-8° C. then 3×30 min in detergent wash (PBS containing 2 mM MgCl2 0.01% Nonidet P40 and 0.1% Sodium Deoxycholate) at 2-8° C. They were then stained overnight in PBS containing 2 mM MgCl2, 0.02% Nonidet P40, 0.1% Sodium Deoxycholate, 5 mM Potassium ferrocyanide, 5 mM Potassium ferricyanide, and 0.1% X-gal at 37° C. The next day, the slides were washed three times for 5 minutes in PBS containing 2 mM MgCl2 followed by three times for 5 minutes in PBS at room temperature. They were equilibrated with 100% ethanol (5 min) and counterstained with Eosin for 1 min at room temperature. Following dehydration and mounting they were evaluated and photographed. • Whole Mount Method
Tissue specimens that had been prefixed in fresh 4% paraformaldehyde were stained immediately using the procedure for “Whole Mount X-Gal Histochemistry of Transgenic Animal Tissues” (see http://www.rodentia.com/wmc/docs/lacZ bible.html), summarised below) was followed, and the post-fixed tissues were transferred to 70% (v/v) ethanol.
Following fixation for one hour in 4% paraformaldehyde, tissues were rinsed three times, for thirty minutes each, with rinse buffer (100 mM sodium phosphate (pH 7.3), 2 mM MgCl2, 0.01% sodium deoxycholate, 0.02% NP-40) at room temperature. […]

HOZ mice [2] = assay: Histopathology (H&E) of HOZ mouse liver and kidney; assay type: in vivo; details: 10 mg/kg i.p. in saline, 24 hours
Protocol: Two further slices (˜2 mm thickness) were placed in 10% neutral buffered formalin (10% NBF) overnight then processed, sectioned and stained with haematoxylin and eosin (H&E).
Initially, one HOZ mouse was given 10 mg/kg body weight cadmium chloride i.p. One control animal received the vehicle solution, isotonic saline, i.p. and an untreated animal was used as a second control. The animals were killed 24 hours after dosing and liver, kidney and brain were collected for H&E staining and lacZ histology.
Sections of HOZ mouse liver and kidney were prepared and stained according to standard procedures (H&E). (a, b) Naive control; (c, d) Saline treated; (e, f) Cadmium chloride treated (10 mg/kg i.p. in saline). All images in FIG. 5 are of H&E stained sections: (a, c and e) are of liver; b, d and f are of kidney (original magnification ×100).

HOZ mice [3] = assay: BUN as a marker of nephrotoxicity in HOZ mice; assay type: in vivo, mouse; parameters: BUN: unit not given here
Protocol: Terminal blood samples were taken by cardiac puncture into lithium/heparin-coated tubes for preparation of plasma. Tissues, as defined in each protocol, were routinely dissected as follows:
Following removal into tubes suitable for plasma preparation, venous blood samples were mixed on a roller for 10 minutes then cooled on ice. Red blood cells were removed by centrifugation at 2,000 rpm for 10 minutes at 8-10° C. The supernatant (plasma) was transferred to a second tube and stored at −70° C. until required for analysis.
Plasma samples were analysed for appropriate analytes on a Roche autoanalyser (Cobas Integra 400) according to the manufacturer's instructions. The routine markers measured included: (for liver damage) plasma alanine aminotransferase (ALT), aspartate aminotransferase (AST) and alkaline phosphatase (ALP) and (for kidney damage) plasma creatinine and blood urea nitrogen (BUN).
The increase in BUN was 6-fold at 8 hours and 44-fold after 24 hours.

## [Cl][Cd][Cl] [Cadmium Chloride, cadmium chloride]
[1]; 8 mg/kg, 8 hours after dosing
  expression of the HOZ gene in kidney: detectable expression
[1]; HOZ mice, with or without cadmium chloride treatment
  LacZ expression in brain: no evidence of LacZ expression
[1]; HOZ mouse, 10 mg/kg i.p. in saline, 24 hours after dosing
  LacZ staining in liver: intense blue staining
[1]; HOZ mouse, 10 mg/kg i.p. in saline, 24 hours, versus naive and saline controls
  LacZ staining in kidney (proximal convoluted tubules): frequency of stained PCTs was much higher
[1]; either sex, 8 mg/kg i.p., 24 hours
  HOZ gene expression in liver: clearly apparent
[1]; female, 4 mg/kg i.p., 8 hours
  LacZ staining in liver: weak LacZ staining
[1]; female, 2-8 mg/kg i.p., 8 hours
  HOZ gene expression in liver: no consistent evidence of HOZ expression
[1]; female, lower doses (2, 4 mg/kg) i.p., 24 hours
  HOZ gene expression in liver: none was evident
[1]; male, 8 mg/kg i.p., 8 hours
  HOZ gene expression in liver: High levels of HOZ gene expression
[1]; male, lower doses (2, 4 mg/kg) i.p., 8 hours
  HOZ gene expression in liver: lower levels of expression
[1]; male, lower doses (2, 4 mg/kg) i.p., 24 hours
  HOZ gene expression in liver: some HOZ expression was also apparent
HOZ mice [2]
  kidney histology (H&E): occasional necrotic proximal convoluted tubules (PCTs)
  liver histology (H&E): acute toxicity manifesting as hepatocyte vacuolation and areas of necrosis associated with deposits of erythrocytes
HOZ mice [3]; female, 1 mg/kg, 8 hours
  BUN: 5.10
HOZ mice [3]; female, 1 mg/kg, 24 hours
  BUN: 4.36
HOZ mice [3]; female, 2 mg/kg, 8 hours
  BUN: 3.33
HOZ mice [3]; female, 2 mg/kg, 24 hours
  BUN: 2.85
HOZ mice [3]; female, 4 mg/kg, 8 hours
  BUN: 4.77
HOZ mice [3]; female, 4 mg/kg, 24 hours
  BUN: 3.66
HOZ mice [3]; female, 8 mg/kg
  nephrotoxicity as measured by BUN: mild nephrotoxicity
HOZ mice [3]; female, 8 mg/kg, 8 hours
  BUN: 22.86
HOZ mice [3]; female, 8 mg/kg, 24 hours
  BUN: 98.16
HOZ mice [3]; female, 8 mg/kg, after 24 hours
  increase in BUN: 44 fold
HOZ mice [3]; female, 8 mg/kg, at 8 hours
  increase in BUN: 6 fold
HOZ mice [3]; male mice
  nephrotoxicity as measured by BUN: No nephrotoxicity
HOZ mice [3]; male, 1 mg/kg, 8 hours
  BUN: 4.54
HOZ mice [3]; male, 1 mg/kg, 24 hours
  BUN: 5.27
HOZ mice [3]; male, 2 mg/kg, 8 hours
  BUN: 4.24
HOZ mice [3]; male, 2 mg/kg, 24 hours
  BUN: 5.10
HOZ mice [3]; male, 4 mg/kg, 8 hours
  BUN: 3.87
HOZ mice [3]; male, 4 mg/kg, 24 hours
  BUN: 4.11
HOZ mice [3]; male, 8 mg/kg, 8 hours
  BUN: 3.84
HOZ mice [3]; male, 8 mg/kg, 24 hours
  BUN: 4.85
